Assay [1] concerns Smad2/Smad3 phosphorylation. Put plainly: Phospho-Smad2/3 Inhibition Assay (western blot), Panc-1. The format is cell-based, human. The following applies: at 10 μM, Panc-1 pancreatic cancer cell line; starred symbols = activation. In outline:
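Panc-1 cells (KRas G12D), starved overnight in 0.5% FBS, treated 3 h at 37° C with compound at 10 μM final (0.3% DMSO) or serial dilutions for IC50, then stimulated with 10 ng/ml TGF-b1 for 1 h. Phospho-Smad2 (Ser465/467) and phospho-Smad3 (Ser423/425) detected by western blot.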
A general note: Immunoblotting shows a protein as a band on a membrane.

The subject of another assay is TNF-alpha. Put plainly: TNF-alpha Quantification Assay (ELISA), LPS-stimulated RAW 264.7. The format is cell-based. The following applies: Mus musculus, RAW264.7; at 10 μM; read-out: TNFα: % inh. (An ELISA detects its analyte on a solid surface through an enzyme-linked reagent.)
For assay [2], the system named is MiaPaca-2 (expressing KRAS G12C mutant). Put plainly: Proliferation Assay (Cell Viability Assay). The format is cell-based. To be noted: Homo sapiens, MIA PaCa-2; read-out: Proliferation in MiaPaca-2: IC50. The method in brief: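 MiaPaca-2 cells (KRAS G12C) were grown in DMEM-high glucose with 10% FBS, seeded at 2000–5000 cells/well and cultured overnight. Compounds were added at 10 μM final, or as serial dilutions for IC50, in 0.3% DMSO/10% FBS for 2–4 days at 37 °C, 5% CO2. Viability was measured with CellTiter 96 Aqueous One and % inhibition calculated.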

Some results are limits rather than exact numbers.

As for `COc1cccc(-c2cn3nc(-c4nccn4C)nc(N[C@H]4C[C@@H](OC)C4)c3c2-c2ccccc2)c1Cl` [Compound 31, 6-(2-Chloro-3-methoxyphenyl)-N-((1s,3s)-3-methoxycyclobutyl)-2-(1-methyl-1H-imidazol-2-yl)-5-phenylpyrrolo[2,1-f][1,2,4]triazin-4-amine], the “% inh of Smad2/3 phosphorylation in Panc-1” value (from here on “% inh”) in assay [1] was “D (D = 76-100% inhibition)”. In addition, the inhibition at 10 µM in the assay on TNF-alpha lay in the range of 75 to 100%. For the same compound, the IC50 in assay [2] was over 1 µM.

`Cc1c(-c2ccn(C)n2)cn2nc(-c3nccn3C)nc(-n3[nH]c(N)cc3=O)c12` [Compound 261, 5-Amino-2-(5-methyl-2-(1-methyl-1H-imidazol-2-yl)-6-(1-methyl-1H-pyrazol-3-yl)pyrrolo[2,1-f][1,2,4]triazin-4-yl)-1,2-dihydro-3H-pyrazol-3-one]: in assay [1], the “% inh” value is “B* (B* = 26-45% activation)”. Moreover, the inhibition at 10 µM in the assay with TNF-alpha lay within 1 to 24%. In assay [2], the IC50 was over 1 µM.

`COCCNc1nc(-c2nccn2C)nn2cc(-c3cccc(OC)c3Cl)c(-c3ccccc3)c12` [Compound 29, 6-(2-Chloro-3-methoxyphenyl)-N-(2-methoxyethyl)-2-(1-methyl-1H-imidazol-2-yl)-5-phenylpyrrolo[2,1-f][1,2,4]triazin-4-amine]: the “% inh” value in assay [1] is given as “D (D = 76-100% inhibition)”. Further, the inhibition at 10 µM with TNF-alpha lay within 75 to 100%. Moreover, in assay [2], the IC50 lay within 0.51 to 1 µM.

Regarding `COCCNc1nc(-c2nccn2C)nn2cc(-c3ccn(C(C)C)n3)c(C(C)C)c12` [Compound 35, 5-Isopropyl-6-(1-isopropyl-1H-pyrazol-3-yl)-N-(2-methoxyethyl)-2-(1-methyl-1H-imidazol-2-yl)pyrrolo[2,1-f][1,2,4]triazin-4-amine], the “% inh” value in assay [1] was “A (A = 1-25% inhibition)”. Moreover, in the assay on TNF-alpha, the inhibition at 10 µM stood at 0%. For the same compound, in assay [2], the IC50 is over 1 µM.

In the case of `CO[C@H]1CC[C@@H](Nc2nc(-c3ccccn3)nn3cc(-c4ccn(C(C)C)n4)c(-c4ccccc4)c23)C1` (racemic) [Compound 24, rac 6-(1-Isopropyl-1H-pyrazol-3-yl)-N-((1R,3S)-3-methoxycyclopentyl)-5-phenyl-2-(pyridin-2-yl)pyrrolo[2,1-f][1,2,4]triazin-4-amine], the “% inh” value in assay [1] was “B (B = 26-45% inhibition)”. For the same compound, the inhibition at 10 µM in the assay on TNF-alpha lay within 25 to 49%. In addition, the IC50 in assay [2] was over 1 µM.

For `Cc1c(-c2ccn(C)n2)cn2nc(-c3nccn3C)nc(Nc3cc(-c4ccccn4)[nH]n3)c12` [Compound 265, 5-Methyl-2-(1-methyl-1H-imidazol-2-yl)-6-(1-methyl-1H-pyrazol-3-yl)-N-(5-(pyridin-2-yl)-1H-pyrazol-3-yl)pyrrolo[2,1-f][1,2,4]triazin-4-amine], the “% inh” value in assay [1] was “A (A = 1-25% inhibition)”. Moreover, the inhibition at 10 µM in the assay with TNF-alpha fell in the range of 25 to 49%. In addition, the IC50 in assay [2] was under 0.15 µM.

In the case of `COc1cc(Nc2nc(-c3nccn3C)nn3cc(-c4cccc(OC)n4)c(C)c23)ncn1` [Compound 65, 6-(6-Methoxypyridin-2-yl)-N-(6-methoxypyrimidin-4-yl)-5-methyl-2-(1-methyl-1H-imidazol-2-yl)pyrrolo[2,1-f][1,2,4]triazin-4-amine], the “% inh” value in assay [1] is recorded as “A* (A* = 1-25% activation)”. Besides, the inhibition at 10 µM in the assay with TNF-alpha lay within 1 to 24%. Further, in assay [2], the IC50 was under 0.15 µM.

Regarding `COc1ccc(Nc2nc(-c3nccn3C)nn3cc(-c4ccn(C(C)C)n4)c(C)c23)cn1` [Compound 71, 6-(1-Isopropyl-1H-pyrazol-3-yl)-N-(6-methoxypyridin-3-yl)-5-methyl-2-(1-methyl-1H-imidazol-2-yl)pyrrolo[2,1-f][1,2,4]triazin-4-amine], the “% inh” value in assay [1] is reported as 0 (0 = 0% inhibition). Also, in the assay on TNF-alpha, the inhibition at 10 µM turned out to be 0%. Moreover, in assay [2], the IC50 was over 1 µM.
